From article PMC3543412, “Fatty Acid Solubilizer from the Oral Disk of the Blowfly” (PLoS ONE, 2013)
pKd: −log10 of the molar value.

What was measured:
[1] = target: T1, PregOBP56a (Phormia regina odorant-binding protein 56a) (Phormia regina, UniProt L8B8J6); assay: fluorescence competitive binding assay (1-NPN displacement), pH […]
T1 construct: recombinant mature PregOBP56a (117 amino acid residues)
T1 sequence (L8B8J6 19-135): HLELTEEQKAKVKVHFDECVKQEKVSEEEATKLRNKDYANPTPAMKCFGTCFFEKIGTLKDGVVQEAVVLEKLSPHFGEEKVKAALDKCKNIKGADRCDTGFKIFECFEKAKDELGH

[2] = target: T1, PregOBP56a (Phormia regina odorant-binding protein 56a); assay: direct fluorescence titration of the reporter probe, pH […]

| Compound | pKd [1] | pKd [2] |
| --- | --- | --- |
| CCCCCCCCCCCCCCCC(=O)O [palmitic acid] | 6.55 | – |
| c1ccc(Nc2cccc3ccccc23)cc1 [1-NPN, N-phenyl-1-naphthylamine] | – | 4.94 |
| CCCCCCCCCCCCCCCCCC(=O)O [stearic acid] | 6.46 | – |

Continued, in another order:

| pKd [1] | Compound | pKd [2] |
| --- | --- | --- |
| 6.29 | CCCCC/C=C\C/C=C\CCCCCCCC(=O)O [linoleic acid] | – |
| 6.15 | CCCCCCCC/C=C\CCCCCCCC(=O)O [oleic acid] | – |
